# Measurements as given in BindingDB's records for patent US12258317 (Sunshine Lake Pharma Co., 2025).
# Columns and labels:
# [1] = molecular target: T1, Amine oxidase [copper-containing] 3 (Homo sapiens, UniProt Q16853); assay: Inhibitory Activity of Human Recombinant SSAO/VAP-1
# T1 sequence (Q16853 whole entry): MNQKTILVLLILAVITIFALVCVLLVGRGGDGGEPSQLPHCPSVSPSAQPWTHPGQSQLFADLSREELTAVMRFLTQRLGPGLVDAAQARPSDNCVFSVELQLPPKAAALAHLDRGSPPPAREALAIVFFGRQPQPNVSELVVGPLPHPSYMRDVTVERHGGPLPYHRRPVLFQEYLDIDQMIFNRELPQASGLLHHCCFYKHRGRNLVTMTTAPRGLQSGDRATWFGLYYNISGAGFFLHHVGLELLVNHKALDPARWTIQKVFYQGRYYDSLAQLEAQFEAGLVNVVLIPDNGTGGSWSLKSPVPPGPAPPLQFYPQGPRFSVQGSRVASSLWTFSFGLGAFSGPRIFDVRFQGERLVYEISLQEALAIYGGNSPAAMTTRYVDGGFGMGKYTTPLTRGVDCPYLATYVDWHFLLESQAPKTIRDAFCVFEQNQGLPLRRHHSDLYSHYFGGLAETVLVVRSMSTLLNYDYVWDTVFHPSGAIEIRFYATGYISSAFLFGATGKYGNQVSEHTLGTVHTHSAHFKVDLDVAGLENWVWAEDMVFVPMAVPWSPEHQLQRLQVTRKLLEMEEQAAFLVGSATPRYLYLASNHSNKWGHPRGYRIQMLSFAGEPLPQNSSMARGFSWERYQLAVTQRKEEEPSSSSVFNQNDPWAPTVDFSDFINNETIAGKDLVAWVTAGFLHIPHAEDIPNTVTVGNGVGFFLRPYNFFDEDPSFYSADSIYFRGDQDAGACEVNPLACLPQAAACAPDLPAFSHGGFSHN
# Text: Test purpose: The following method is used to determine the inhibitory activity of the compounds in the examples of the present invention on human recombinant SSAO/VAP-1.Test Materials:Human recombinant SSAO/VAP-1 (VAP-1, human) was purchased from Sigma, Cat. No. SRP6241;Amplex Red Monoamine Oxidase Assay Kit was purchased from Invitrogen, Cat. No. A12214;384-well plate was purchased from Corning, Cat. No. 6005174;Amplex Red Hydrogen PeroxidePeroxidase Assay Kit was purchased from Invitrogen, Cat. No. A22188.Benzylamine hydrochloride was purchased from Sigma, Cat. No. B5136-25G;DMSO (Dimethyl Sulfoxide) was purchased from Sigma, Cat. No. D2650-100ML;Test Method:The test compound was dissolved in DMSO and diluted 4 times to a total of 10 concentrations. In a 384-well plate, 25 μL of human recombinant SSAO/VAP-1 (1.6 μg/mL) was added into each well. 100 nL of test compounds at different concentrations were added to each well containing human recombinant SSAO/VAP-1, and the plate was incubated at room temperature for 30 min. […] After 60 min, PerkinElmer's Envision was used to read the fluorescence value (RFU) under excitation at 530-560 nm and emission at 590 nm.
# [2] = molecular target: T2, Diamine oxidase [copper-containing] (Homo sapiens, UniProt P19801); assay: Inhibition of DAO (Diamine Oxidase)
# T2 construct: gene AOC1
# T2 sequence (P19801 20-751 limits assumed): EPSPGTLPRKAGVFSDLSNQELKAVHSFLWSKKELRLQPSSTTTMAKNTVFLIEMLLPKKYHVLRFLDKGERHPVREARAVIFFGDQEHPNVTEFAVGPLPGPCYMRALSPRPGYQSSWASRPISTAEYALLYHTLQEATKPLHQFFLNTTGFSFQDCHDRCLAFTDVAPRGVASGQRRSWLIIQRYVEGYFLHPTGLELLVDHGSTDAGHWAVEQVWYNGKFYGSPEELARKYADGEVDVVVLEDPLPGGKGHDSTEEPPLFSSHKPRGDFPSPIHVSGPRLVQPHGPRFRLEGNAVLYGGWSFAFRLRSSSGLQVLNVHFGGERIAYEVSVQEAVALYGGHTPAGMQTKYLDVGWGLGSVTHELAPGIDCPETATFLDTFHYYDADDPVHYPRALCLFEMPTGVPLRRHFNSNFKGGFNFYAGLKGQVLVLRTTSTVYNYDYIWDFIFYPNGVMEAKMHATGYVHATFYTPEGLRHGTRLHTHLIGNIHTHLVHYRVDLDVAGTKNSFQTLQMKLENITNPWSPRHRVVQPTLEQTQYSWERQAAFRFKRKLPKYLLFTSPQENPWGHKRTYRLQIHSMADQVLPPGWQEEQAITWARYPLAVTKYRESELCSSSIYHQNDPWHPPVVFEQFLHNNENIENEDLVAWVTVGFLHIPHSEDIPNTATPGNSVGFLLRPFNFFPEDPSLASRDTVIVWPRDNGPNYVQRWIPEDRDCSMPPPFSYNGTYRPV
# Description: Test purpose: The following method is used to determine the selective inhibitory activity of the compound of the present invention on DAO.Test Materials:Human recombinant DAO (Recombinant Human ABP-1/DAO) was purchased from R&D, Cat. No. 8298-AO;Amplex Red Hydrogen PeroxidePeroxidase Assay Kit was purchased from Invitrogen, Cat. No. A22188;1,4-Diaminobutane dihydrochloride was purchased from Aladdin, Cat. No. D106194-25G.Test Method:The test compound was dissolved in DMSO and diluted 5 times to a total of 6 concentrations. In a 384-well plate, 24 μL of human recombinant DAO (1 μg/mL) was added into each well. 1 μL of test compounds at different concentrations were added to each well containing human recombinant DAO, and the plate was incubated at 37° C. for 30 min. After incubating for 30 min, 25 μL of Amplex Red Hydrogen Peroxide Peroxidase Assay Kit (containing 100 μM Amplex Red and 0.2 U/ml HRP) containing 1 M 1,4-butanediamine dihydrochloride was added into the corresponding wells, and the plate was incubated in the dark at 37° C. for 30 min. After 30 min, PHERAstar FSX microplate reader of BMG LABTECH was used to read the fluorescence value (RFU) under excitation at 540 nm and emission at 580 nm.
Structure (SMILES),IC50 [1] [nM],IC50 [2] [nM]
"NC/C(=C/F)COc1ccc2c(c1)CCN(CC(N)=O)C2=O [US12258317, Example 2]",2.2,
"NC/C(=C\F)COc1ccc2c(c1)CCN(CC(N)=O)C2=O [US12258317, Example 1]",6.29,> 1000
